From patent publication US8916711B2, “Imidazothiazole-chalcone derivatives as potential anticancer agents and process for the preparation thereof” (Council of Scientific and Industrial Research, priority 2009, dated 2014)
Read-outs that look alike come from different tables or passages of the source.

How the values were obtained:
Type in all cases: cell-based
TK-10 = assay: NCI in vitro cytotoxicity (SRB, 48 h), Renal panel; conditions: Homo sapiens; TK-10, Renal; 48 h exposure
MDA-MB-231/ATCC = assay: NCI in vitro cytotoxicity (SRB, 48 h), Breast panel; conditions: Homo sapiens; for GI50: Breast, 48 h exposure; for IC50: Table 4, read-out: Comparative efficacy
Procedure: (§1) The imidazothiazole-chalcone hybrids 7a, 7e, 7f, 8f and 19e have been tested against sixty human tumour cell lines derived from nine cancer types (leukemia, non-small cell lung cancer, colon cancer, CNS cancer, melanoma, ovarian cancer, renal cancer, prostate cancer and breast cancer) as per NCI protocol. For each compound, dose response curves for individual cell lines have been measured at a minimum of five concentrations at 10 fold dilutions. A protocol of 48 h continuous drug exposure has been used, and a sulforhodamine B (SRB) protein assay was used to estimate cell viability or growth. The concentration for 50% cell growth inhibition (GI50), total cell growth inhibition (TGI, 0% growth) and 50% cell death (LC50, […]) compared with the control has been calculated (Table-1).

MCF7 = assay: as above; conditions: Homo sapiens; for IC50: MCF7, MCF-7, Table 4, read-out: Comparative efficacy; for GI50: MCF7, Breast, 48 h exposure
Procedure: as §1

Leukemia cell lines = assay: NCI in vitro cytotoxicity, whole panel; conditions: Homo sapiens; for CC50: read-out: Log10 LC50 (converted)
MOLT-4 = assay: NCI in vitro cytotoxicity (SRB, 48 h), Leukemia panel; conditions: Homo sapiens; MOLT-4, Leukemia; 48 h exposure
RPMI-8226 = assay: as above; conditions: Homo sapiens; RPMI-8226, Leukemia; 48 h exposure
Breast cancer cell lines = assay: NCI in vitro cytotoxicity, whole panel; conditions: Homo sapiens; for GI50 / CC50: Breast, average of six to eight cell lines; for GI50: read-out: Log10 GI50 (converted); for CC50: read-out: Log10 LC50 (converted); for IC50: exposure period of at least 48 hrs, read-out: IC50, range over breast cell lines
SK-MEL-2 = assay: NCI in vitro cytotoxicity (SRB, 48 h), Melanoma panel; conditions: Homo sapiens; SK-MEL-2, Melanoma; 48 h exposure
Melanoma cell lines = assay: NCI in vitro cytotoxicity, whole panel; conditions: Homo sapiens; for CC50: read-out: Log10 LC50 (converted)
SK-OV-3 = assay: NCI in vitro cytotoxicity (SRB, 48 h), Ovarian panel; conditions: Homo sapiens; SK-OV-3, Ovarian; 48 h exposure
EKVX = assay: NCI in vitro cytotoxicity (SRB, 48 h), Non-small cell lung panel; conditions: Homo sapiens, 48 h exposure
IGROV1 = assay: NCI in vitro cytotoxicity (SRB, 48 h), Ovarian panel; conditions: Homo sapiens, IGROV-1; IGROV1, Ovarian; 48 h exposure
[1] = tested on: Prostate cancer cell lines; assay: NCI in vitro cytotoxicity, whole panel; conditions: Homo sapiens; for LC50: read-out: Log10 LC50 (converted)
SK-MEL-5 = assay: NCI in vitro cytotoxicity (SRB, 48 h), Melanoma panel; conditions: Homo sapiens; SK-MEL-5, Melanoma; 48 h exposure
UACC-62 = assay: as above; conditions: Homo sapiens; UACC-62, Melanoma; 48 h exposure
NCI-H23 = assay: NCI in vitro cytotoxicity (SRB, 48 h), Non-small cell lung panel; conditions: Homo sapiens, 48 h exposure
Renal cancer cell lines = assay: NCI in vitro cytotoxicity, whole panel; conditions: Homo sapiens; for CC50: read-out: Log10 LC50 (converted)
UO-31 = assay: NCI in vitro cytotoxicity (SRB, 48 h), Renal panel; conditions: Homo sapiens; UO-31, Renal; 48 h exposure
SR = assay: NCI in vitro cytotoxicity (SRB, 48 h), Leukemia panel; conditions: Homo sapiens
Procedure: as §1

HL-60(TB) = assay: as above; conditions: Homo sapiens, 48 h exposure
Procedure: as §1

786-0 = assay: NCI in vitro cytotoxicity (SRB, 48 h), Renal panel; conditions: Homo sapiens; 786-0, Renal; 48 h exposure
RXF 393 = assay: NCI in vitro cytotoxicity (SRB, 48 h), Renal panel; conditions: Homo sapiens; RXF 393, Renal; 48 h exposure
NCI-H460 = assay: NCI in vitro cytotoxicity (SRB, 48 h), Non-small cell lung panel; conditions: Homo sapiens, 48 h exposure
SF-539 = assay: NCI in vitro cytotoxicity (SRB, 48 h), CNS panel; conditions: Homo sapiens; SF-539, CNS; 48 h exposure
[2] = tested on: sixty human tumour cell lines; assay: NCI in vitro cytotoxicity, all panels; conditions: for CC50: read-out: Log10 LC50 mean graph midpoint (MG_MID) (converted)
HCT-116 = assay: NCI in vitro cytotoxicity (SRB, 48 h), Colon panel; conditions: Homo sapiens; for IC50: HCT-116, HCT116, Table 4, read-out: Comparative efficacy
SNB-19 = assay: NCI in vitro cytotoxicity (SRB, 48 h), CNS panel; conditions: Homo sapiens; SNB-19, CNS; 48 h exposure
COLO 205 = assay: NCI in vitro cytotoxicity (SRB, 48 h), Colon panel; conditions: Homo sapiens; COLO 205, Colon; 48 h exposure
HS 578T = assay: NCI in vitro cytotoxicity (SRB, 48 h), Breast panel; conditions: Homo sapiens, 48 h exposure
NCI/ADR-RES = assay: NCI in vitro cytotoxicity (SRB, 48 h), Ovarian panel; conditions: Homo sapiens, 48 h exposure
M14 = assay: NCI in vitro cytotoxicity (SRB, 48 h), Melanoma panel; conditions: Homo sapiens, 48 h exposure
[3] = Leukemia, average of six to eight cell lines, read-out: Log10 GI50 (converted)
[4] = Leukemia, average of six to eight cell lines
[5] = exposure period of at least 48 hrs, read-out: GI50, range over leukemia cell lines
[6] = Melanoma, average of six to eight cell lines, read-out: Log10 GI50 (converted)
[7] = Melanoma, average of six to eight cell lines
[8] = exposure period of at least 48 hrs, read-out: GI50, range over melanoma cell lines
[9] = Prostate cell, exposure period of at least 48 hrs, read-out: GI50, range over prostate cell lines
[10] = Prostate, average of the panel's cell lines, read-out: Log10 GI50 (converted)
[11] = Prostate, average of the panel's cell lines
[12] = Renal, average of six to eight cell lines, read-out: Log10 GI50 (converted)
[13] = Renal, average of six to eight cell lines
[14] = exposure period of at least 48 hrs, read-out: GI50, range over renal cell lines
[15] = Homo sapiens, sixty cell lines, nine panels, read-out: GI50 against sixty cell lines in nine cell panels
[16] = human tumour cell lines, read-out: Log10 GI50 mean graph midpoint (MG_MID) (converted)

COc1cc(C(=O)/C=C/c2c(C(F)(F)F)nc3sccn23)cc(OC)c1OC [Compound 7f, (E)-3-(6-(trifluoromethyl)imidazo[2,1-b]thiazol-5-yl)-1-(3,4,5-trimethoxyphenyl)prop-2-en-1-one]
GI50 (TK-10): 2300 nM
GI50 (MDA-MB-231/ATCC): 2920 nM
IC50 (MDA-MB-231/ATCC): 2920 nM
IC50 (MCF7): 1250 nM
GI50 (MCF7): 1250 nM
GI50 (Leukemia cell lines; [3]): 1290 nM
CC50 (Leukemia cell lines; [4]): ≥ 100000 nM
GI50 (Leukemia cell lines; [5]): 540 to 1920 nM
GI50 (MOLT-4): 1920 nM
GI50 (RPMI-8226): 1080 nM
GI50 (Breast cancer cell lines): 2090 nM
CC50 (Breast cancer cell lines): 24500 nM
IC50 (Breast cancer cell lines): 1250 to 2920 nM
GI50 (SK-MEL-2): 2260 nM
GI50 (Melanoma cell lines; [6]): 1700 nM
CC50 (Melanoma cell lines; [7]): 9330 nM
GI50 (Melanoma cell lines; [8]): 1360 to 2260 nM
GI50 (SK-OV-3): 2870 nM
GI50 (EKVX): 2720 nM
GI50 (IGROV1): 2660 nM
GI50 [1, 9]: 1410 to 2660 nM
GI50 [1, 10]: 1950 nM
LC50 [1, 11]: 20000 nM
GI50 (SK-MEL-5): 1590 nM
GI50 (UACC-62): 1520 nM
GI50 (NCI-H23): 1720 nM
GI50 (Renal cancer cell lines; [12]): 1860 nM
CC50 (Renal cancer cell lines; [13]): 10500 nM
GI50 (Renal cancer cell lines; [14]): 1560 to 2300 nM
GI50 (UO-31): 1870 nM
GI50 (SR): 540 nM
GI50 (SR; 48 h exposure): 540 nM
GI50 (HL-60(TB)): 1830 nM
GI50 (786-0): 1760 nM
GI50 (RXF 393): 2020 nM
GI50 (NCI-H460): 1650 nM
GI50 (SF-539): 1550 nM
GI50 [2, 15]: < 9000 nM
Log10 TGI mean graph midpoint (MG_MID) ([2]; human tumour cell lines): −5.28
in vitro cytotoxicity, in words ([2]; human tumour cell lines): significant cytotoxicity
GI50 [2, 16]: 1910 nM
CC50 ([2]; human tumour cell lines): 19100 nM
IC50 (HCT-116): 1010 nM
GI50 (HCT-116; HCT-116, Colon, 48 h exposure): 1010 nM
GI50 (HCT-116; HCT-116, colon): 1010 nM
GI50 (SNB-19): 2670 nM
GI50 (COLO 205): 1940 nM

COc1ccc(C(=O)/C=C/c2c(C(F)(F)F)nc3sccn23)cc1OC [Compound 8f, (E)-1-(3,4-dimethoxyphenyl)-3-(6-(trifluoromethyl)imidazo[2,1-b]thiazol-5-yl) prop-2-en-1-one]
GI50 (TK-10): 8760 nM
GI50 (MDA-MB-231/ATCC): 5910 nM
IC50 (MDA-MB-231/ATCC): 760 nM
IC50 (MCF7): 760 nM
GI50 (MCF7): 760 nM
GI50 (Leukemia cell lines; [3]): 1480 nM
CC50 (Leukemia cell lines; [4]): ≥ 100000 nM
GI50 (Leukemia cell lines; [5]): 490 to 2330 nM
GI50 (MOLT-4): 2220 nM
GI50 (RPMI-8226): 1620 nM
GI50 (Breast cancer cell lines): 2950 nM
CC50 (Breast cancer cell lines): ≥ 100000 nM
IC50 (Breast cancer cell lines): 760 to 6180 nM
GI50 (SK-MEL-2): 4080 nM
GI50 (HS 578T): 2510 nM
GI50 (Melanoma cell lines; [6]): 3630 nM
CC50 (Melanoma cell lines; [7]): ≥ 100000 nM
GI50 (Melanoma cell lines; [8]): 600 to 8480 nM
GI50 (SK-OV-3): 3410 nM
GI50 (EKVX): 4430 nM
GI50 (IGROV1): 3150 nM
GI50 [1, 9]: 1640 to 5390 nM
GI50 [1, 10]: 2950 nM
LC50 [1, 11]: ≥ 100000 nM
GI50 (SK-MEL-5): 4200 nM
GI50 (UACC-62): 4850 nM
GI50 (NCI-H23): 2780 nM
GI50 (NCI/ADR-RES): 1880 nM
GI50 (Renal cancer cell lines; [12]): 4900 nM
CC50 (Renal cancer cell lines; [13]): ≥ 100000 nM
GI50 (Renal cancer cell lines; [14]): 2460 to 8760 nM
GI50 (UO-31): 8470 nM
GI50 (SR): 490 nM
GI50 (SR; 48 h exposure): 490 nM
GI50 (HL-60(TB)): 1000 nM
GI50 (786-0): 5670 nM
GI50 (RXF 393): 2510 nM
GI50 (NCI-H460): 1940 nM
GI50 (SF-539): 2360 nM
GI50 [2, 15]: < 9000 nM
Log10 TGI mean graph midpoint (MG_MID) ([2]; human tumour cell lines): −4.22
in vitro cytotoxicity, in words ([2]; human tumour cell lines): significant cytotoxicity
GI50 [2, 16]: 3090 nM
CC50 ([2]; human tumour cell lines): 100000 nM
IC50 (HCT-116): 1400 nM
GI50 (HCT-116; HCT-116, Colon, 48 h exposure): 1400 nM
GI50 (SNB-19): 4250 nM
GI50 (COLO 205): 4560 nM
GI50 (M14): 2670 nM
